The source of these data is patent US20230255970A1, “COMPOSITIONS AND METHODS FOR TREATING PROLIFERATIVE DISEASES” (The Broad Institute, Inc., priority 2020, published 2023).

Test [1] has as its system TRAF2 overexpression in U2OS cells. The experiment in a line: Cell Painting morphological profile matching to TRAF2 overexpression. The class given is cell-based, human. The following applies: Pearson correlation of Cell Painting signatures, U2OS cells. Put shortly: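 Compound-treated U2OS cells were stained with six fluorescent labels and imaged, and morphological profiles were standardized plate-wise against controls. Replicate profiles were averaged into signatures. Compound and gene-overexpression signatures were matched by Pearson correlation.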

The test system of test [2] is H9 human pluripotent stem cells. The experiment in a line: qPCR of YAP1, CTGF and CYR61 in H9 hPSCs. The following applies: 24 hrs. The test is classed as cell-based. The procedure: (§1) H9 hPSCs (WiCell) were maintained on vitronectin (Thermo Fisher)-coated plates in Essential 8 (E8) medium. The cells were routinely passaged using 0.5 mM EDTA and treated with 5 μM Y-27632 dihydrochloride (Tocris) on the first day. For testing the effects of the small molecules, H9 hPSCs were seeded at 50K cells/cm^2 on vitronectin-coated plates in E8 medium supplemented with 5 μM Y-27632 dihydrochloride (day 0). On day 1, the medium was switched to E8 medium. On day 2, the medium was switched to E8 medium supplemented with the small molecules. Following overnight incubation, the cells were collected for subsequent analysis on day 3.
The RNA was extracted using TRIzol (Life Technologies) and Direct-zol™ RNA MiniPrep kit (Zymo Research) as per manufacturer instructions. The RNA was reverse transcribed using iScript cDNA synthesis kit (Bio-Rad). The qPCR was performed on CFX Connect (Bio-Rad) using iTaq Universal SYBR Green Supermix (Bio-Rad). GAPDH was used as a reference gene for normalization. The relative gene expression levels were determined using the ddCt method.

The test system of test [3] is YAP1. Description: YAP1 immunofluorescence in H9 cells. The test is classed as cell-based, human. The conditions noted are these: 10 μM, 24 hours. The procedure: as §1
The cells were fixed with 4% formaldehyde for 15 mins at room temperature. The cells were permeabilized and blocked with PBS containing 2% BSA and 0.1% Triton-X100. The cells were incubated with a primary antibody against YAP1 (sc-101199) at 1:1000 dilution in a blocking buffer overnight at 4° C. Then, a goat anti-mouse Alexa Fluor 488 conjugated secondary antibody was added for 1 hour at room temperature. […] Images were collected with Olympus FV1200 microscope and analyzed with CellProfiler. […] The cell cytoplasm was determined as the region outside nuclei but within the cell bodies. Then, an average pixel intensity of YAP in the nucleus and cytoplasm was calculated to determine YAP translocation

For test [4], the system named is Yap1. Description: Nuclear Yap1 immunofluorescence in KP230 cells. The class given is cell-based, mouse. The text has this:
(§2) YAP1 cell culture and treatments: Eisinger lab: Murine KP230 cells, a Yap1-dependent cancer cell line, were derived from a tumor from the KP mouse model (Kras^G12/D; Trp53^f/fl), as described in Eisinger-Mathason, T. S. K. et al., Proc. Natl. Acad. Sci. U.S.A 112 (2015): E3402-11, which is hereby incorporated by reference in its entirety. STS-109 UPS cells were derived from a human UPS tumor and validated by Rebecca Gladdy, MD (Sinai Health System, Toronto, Ontario, Canada). TC32 cells were a gift from Patrick Grohar, MD, PhD (Children's Hospital of Philadelphia). HT-1080, HCT-116, and HEK293T cells were purchased from ATCC. KP230, HT-1080, and HEK-293T cells were grown in DMEM with 10% FBS, 1% L-glutamine, and 1% penicillin/streptomycin (P/S). […]
YAP1-related immunofluorescence and image analysis: Cells were grown on poly-L-lysine-coated chamber slides were fixed in 4% PFA (15 minutes at room temperature), permeabilized with 0.5% Triton-X100/PBS (15 minutes at room temperature), and blocked with 5% goat serum (Vector Laboratories S-1000; 1 hour at room temperature). […] The ratio of nuclear to total Yap1 expression was determined after subtracting out background GFP signal from no-primary antibody controls.

In test [5] the test system is HT-1080 fibrosarcoma cells. Description: Proliferation assay, HT-1080 cells. The following applies: 10 μM daily for 72 hours. The test is classed as cell-based, human.
Source text: as §2, with “(P/S). STS-109 cells were cultured in DMEM with 20% FBS, 1% L-glutamine, and 1% P/S. TC32 cells were grown in RPMI with 10% FBS, 1% L-glutamine, and 1% P/S. HCT-116 cells were cultured in McCoy's 5A medium with 10% FBS and 1% P/S. All cells were confirmed to be negative for mycoplasma contamination and were maintained in an incubator at 37C with 5% CO2.” for “(P/S).”
NB4A treatment: Cells were treated with 10 μM of each inhibitor or an equivalent volume of DMSO every 24 hours for 3-8 days, and counted with a hemocytometer with trypan blue exclusion daily (KP230, HT-1080, TC32, HCT-116), or every 2 days (STS-109).

The next test has as its system TEAD-YAP interaction. The conditions noted are these: HEK-TIYL cells, PubChem; cited from earlier work.

For `c1ccc(CNc2ncnc3ccccc23)cc1` [BRD-K43796186, N-benzylquinazolin-4-amine], the “Corr. to TRAF2” value in test [1] is recorded as −0.3778. Moreover, in test [2], the YAP1 expression result is “did not affect”; the “expression of YAP1 target genes (CTGF and CYR61)” value was “increased the expression of YAP1 target genes (CTGF and CYR61) in a dose-dependent manner”. In addition, in the test on YAP1 [3], the YAP1 nuclear localization result is on record as “increased YAP1 nuclear localization”. For the same compound, the Yap1 nuclear localization entry in the test with Yap1 [4] is on record as “significantly attenuated”. The proliferation entry in test [5] is listed as “did not affect the proliferation”. The “inhibitors of TEAD-YAP interaction” value with TEAD-YAP interaction is reported as “showed activity”.
